# From patent US9173876B2, “Preparation and therapeutic applications of (2S,3R)-N-2-((3-pyridinyl)methyl)-1-azabicyclo[2.2.2]oct-3-yl)-3,5-difluorobenzamide” (Targacept, Inc., priority 2009, dated 2015)
# Columns and labels:
# Sprague-Dawley rats = experiment: Complete Freund's adjuvant (CFA)-induced thermal hyperalgesia; type: in vivo, rat; conditions: 0.1, 1 or 10 mg/kg s.c., 1 hour post-dose, vs vehicle
# From the text: Briefly, adult male Sprague-Dawley rats (BioLasco, Taiwan) weighing 180±20 g on receipt were randomly assigned to treatment groups of n=8 per group. […] A subject was placed within a plastic box atop an elevated glass floor and a light beam located under the glass floor was directed at the plantar surface of the right hind paw. The time required for the animal to withdraw the paw from the thermal stimulus was automatically recorded. The intensity of the light was adjusted to evoke an average group baseline latency from 12-14 seconds (pre-CFA) and a cut-off latency of 20 seconds was imposed. The latency for paw withdrawal was obtained for each rat and defined as the heat pain threshold.
# Test substance, morphine and vehicle were administered by subcutaneous (s.c.) injection at time 0. The post-treatment level of thermal hyperalgesia was then measured at 60 minutes post-treatment. One-way ANOVA followed by Dunnett's test was applied for comparison between test substance treated groups and vehicle control group. Activity was considered significant at the P<0.05 level.
# [1] = target: α7 nicotinic ACh receptors (Homo sapiens, UniProt P36544); experiment: Electrophysiology, dose-response at α7 nicotinic ACh receptors; type: cell-based
# [2] = test system: STZ rat model of diabetic neuropathy; experiment: Streptozotocin (STZ)-induced diabetic neuropathy, Von Frey allodynia; type: in vivo; conditions: for Tactile allodynia (Von Frey): 30 min after administration
# Experimental: Diabetes was induced by a 0.5 ml injection of streptozotocin (60 mg/kg) dissolved in citrate buffer (pH=6) into the tail vein of each rat. The development of diabetes was confirmed by measuring the blood glucose levels (BGL) of all animals on study day 3 (BGL>300 mg/dL). […] These animals were tested again for their BGL at study day 23.
# (2S,3R)—N-2-((3-pyridinyl)methyl)-1-azabicyclo[2.2.2]oct-3-yl)-3,5-difluorobenzamide (0.1, 1 or 10 mg/kg p.o.) was administered as a solution of the hydrochloride salt in water once daily starting on study day 14 or study day 16 and continuing through study day 21 or 23, respectively. The control article gabapentin (in 0.9% saline, 150 mg/kg i.p.) was only administered on allodynia test days. Test item, vehicle or control article administration was based on evaluation of allodynia on study day 14. If allodynia was not present on study day 14, the animal was evaluated again at study day 16. Pain response was measured either on study days 14 and 21 or 16 and 23, 30 minutes after Test Item administration.
# For the allodynia assessments, Von Frey filaments were used according to the methods of Chaplan and colleagues (1994). Briefly, the rats were placed in an enclosure and positioned on a metal mesh surface, but allowed to move freely. The rats' cabins were covered with red cellophane to diminish environmental distributions. The test began after cessation of exploratory behavior.
# When the tip of a Von Frey fiber of given length and diameter was pressed against the skin at right angles, the force of application increases as long as the researcher continued to advance the probe until the fiber bent. After the fiber bent, the probe was advanced, causing the fiber to bend more, but without additional force being applied. The animal would indicate sensation by pulling back its paw. In the absence of a paw withdrawal response to the initially selected filament, a stronger stimulus was presented: in the event of paw withdrawal, the next weaker stimulus was chosen. In this fashion, the resulting pattern of positive and negative responses was used to determine the paw withdrawal threshold.
# The set of Von Frey monofilaments provide an approximate logarithmic scale of actual force and a linear scale of perceived intensity. Below is a table showing the force (g) and its corresponding size of monofilaments.
# All normally distributed data are presented as means±SEM, as well as the animals' individual values followed by a student T-test (Software: Microsoft® Excel). A p value<0.05 is considered to represent a significant difference. Due to the non-normal distribution of the allodynia data, descriptions of those data are provided as both mean (+SEM) and median values in order to represent their imprecise nature and skewed distribution.
# [3] = test system: ovalbumin-sensitized mice; experiment: Airway hyperresponsiveness, Penh response to methacholine; type: in vivo, mouse; conditions: for Methacholine-induced increase in Penh values: FIG. 21
# Experimental: Using the method of Hamelmann et al, (2S,3R)—N-2-((3-pyridinyl)methyl)-1-azabicyclo[2.2.2]oct-3-yl)-3,5-difluorobenzamide was evaluated for possible inhibition of airway hyper-responsiveness in mice. Briefly, ovalbumin (OVA)-sensitized animals, 12 animals per group, were challenged by nasal inhalation with aerosolized 5% OVA for 25 min on days 21, 23, and 25. The mice were treated with vehicle or (2S,3R)—N-2-((3-pyridinyl)methyl)-1-azabicyclo[2.2.2]oct-3-yl)-3,5-difluorobenzamide subcutaneously (s.c.) twice daily from day 21 to day 26 or once daily intratracheally (i.t.), preceding ovalbumin aerosol challenge by 30 min on days 21, 23 and 25 as well as methacholine challenge or bronchoalveolar lavage fluids (BALF) harvest on day 26. Dexamethasone, the reference standard, was administered at 3 mg/kg orally (p.o.) once daily 60 min before OVA challenge on day 21, 23 and 25 and 60 min before methacholine provocation or BALF harvest on day 26. Noninvasive measurements of airway responsiveness were performed by using whole body plethysmography, in which increases in enhanced pause (Penh) serve as an index of airway obstruction. Responses to inhaled methacholine were measured and calculated as percentage of respective baseline values. Unpaired Student's t-test was used for comparison between the vehicle control and the sham group; one-way ANOVA and Dunnett's post-hoc analyses were applied for comparison between the vehicle control and treated groups. Statistical significance is considered at P<0.05.
# α7 nicotinic ACh receptors, sequence (P36544 23-502): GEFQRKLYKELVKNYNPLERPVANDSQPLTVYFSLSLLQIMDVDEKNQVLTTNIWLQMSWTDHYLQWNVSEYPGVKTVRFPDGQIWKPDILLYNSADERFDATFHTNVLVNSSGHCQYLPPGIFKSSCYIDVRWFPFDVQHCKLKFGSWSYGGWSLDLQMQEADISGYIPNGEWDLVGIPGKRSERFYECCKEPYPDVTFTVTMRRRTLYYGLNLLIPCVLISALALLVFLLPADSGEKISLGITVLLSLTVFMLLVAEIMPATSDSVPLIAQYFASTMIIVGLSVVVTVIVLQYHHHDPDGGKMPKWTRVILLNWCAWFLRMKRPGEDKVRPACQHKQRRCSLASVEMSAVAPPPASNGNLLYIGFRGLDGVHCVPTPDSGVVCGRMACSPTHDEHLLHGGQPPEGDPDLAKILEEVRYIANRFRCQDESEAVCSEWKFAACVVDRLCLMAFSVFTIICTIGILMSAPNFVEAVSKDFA
structure (smiles),measurement,setting,value
O=C(N[C@@H]1C2CCN(CC2)[C@H]1Cc1cccnc1)c1cc(F)cc(F)c1 [Compound A],Analgesic effect on CFA-induced thermal hyperalgesia,Sprague-Dawley rats,not associated with any significant analgesic effect
same,Functional mode at the α7 NNR,[1],partial agonist
same,"Diabetic neuropathy pain, Von Frey assessment","[2]; 1 mg/kg and 10 mg/kg, compared to vehicle, FIG. 14",effective in reducing diabetic neuropathy pain
same,Tactile allodynia (Von Frey),"[2]; 1 mg/kg p.o., study days 14/16, vs pretreatment p<0.01, vs vehicle p<0.05",inhibited allodynia
same,Tactile allodynia (Von Frey),"[2]; 1 mg/kg p.o., study days 21/23, vs pretreatment p=0.012",inhibited allodynia
same,Tactile allodynia (Von Frey),"[2]; 10 mg/kg p.o., study days 14/16, vs pretreatment p=0.012",inhibited allodynia
same,Tactile allodynia (Von Frey),"[2]; 10 mg/kg p.o., study days 21/23, vs vehicle p<0.05",inhibited allodynia
same,Methacholine-induced increase in Penh values,[3]; 10 mg/kg IT qd,significant inhibition
same,Methacholine-induced increase in Penh values,"[3]; 0.1, 1, and 10 mg/kg bid s.c.",significant inhibition
same,Protection against airway hyper-responsiveness (summary),"[3]; 0.1, 1 and 10 mg/kg bid s.c. and 10 mg/kg i.t.",significant protection against airway hyper-responsiveness
